± gives the expanded uncertainty stated by the source.
Assay: refractive index (Na D-line) (dimensionless); wn = mass fraction of the nth substance listed
Details: 288.15 K, 100 kPa, Liquid, Standard Abbe refractometry

Q: Which refractive index (w1 = 0.5929) does the source give for [Br-].[Li+] [lithium bromide] + O here?
A: 1.4744 ± 0.0004

Q: With [Ca+2].[Cl-].[Cl-] [calcium chloride] + O as the compound, how does the refractive index (w1 = 0.4075) read?
A: 1.4428 ± 0.0004

Q: With [Br-].[Br-].[Ca+2] [calcium bromide] + O as the compound, how does the refractive index (w1 = 0.5794) read?
A: 1.4892 ± 0.0004

Q: For [Cl-].[Li+] [lithium chloride] + O, which refractive index (w1 = 0.4395) is on record?
A: 1.4343 ± 0.0004

From the NIST ThermoML archive (doi:10.1021/acs.jced.6b00855)
